Results taken from ChEMBL document CHEMBL3734735, “The effect of N-methylation on transition state mimetic inhibitors of the Plasmodium protease, plasmepsin V” (Medchemcomm, 2015).
Active and inactive are the calls of the source. The rule behind the calls is not given here. Square brackets hold non-standard residues; d marks the D form. Peptide text beside a SMILES is read from it. * marks the point of attachment. Sta = CC(C)C[C@H](N)[C@@H](O)CC(=O)O; NHPhenethyl = c1ccc(CCN*)cc1; NMeV = CN[C@H](C(=O)O)C(C)C; Cbz = O=C(OCc1ccccc1)*

Legend:
[1] = biological target: Plasmepsin V (Plasmodium falciparum (isolate 3D7), UniProt Q8I6Z5); assay: Inhibition of HA-tagged transgenic Plasmodium falciparum plasmepsin 5 using DABCYL-RNKRTLAQKQ-E-EDANS as substrate after 120 mins by fluorescence plate reader analysis
[2] = system: Plasmodium falciparum; assay: Antiparasitic activity against early ring-stage of Plasmodium falciparum 3D7 infected in human erythrocytes assessed as inhibition of parasite viability after 72 hrs by flow cytometric analysis; assay type: functional, organism-based; conditions: 3D7, 72 h
[3] = system: HepG2; assay: Cytotoxicity against human HepG2 cells after 48 hrs by CellTiter Glo assay; assay type: cell-based; conditions: HepG2, 48 h
[4] = Stability in phosphate buffer at 5000 ng/ml at 37 degC at pH 7.4 measured over 24 hrs by LC-MS analysis in presence of porcine pancreatin; assay type: physicochemical; conditions: pig, pH 7.4, 24 h
[5] = system: Serum; assay: Metabolic stability in human serum at 5000 ng/ml at 37 degC measured over 55 hrs by LC-MS analysis; assay type: ADME
[6] = biological target: Plasmepsin V (Plasmodium falciparum (isolate 3D7)) (UniProt Q8I6Z5); assay: Inhibition of plasmepsin 5 in trophozoite stage of transgenic Plasmodium falciparum infected in erythrocytes assessed as suppression of PEXEL processing of GFP-fused EMP3 at 20 uM after 5 hrs by Western blot analysis; assay type: cell-based
Chain of Plasmepsin V (Plasmodium falciparum (isolate 3D7)) (Q8I6Z5 whole entry, looked up, the tested form may be a part): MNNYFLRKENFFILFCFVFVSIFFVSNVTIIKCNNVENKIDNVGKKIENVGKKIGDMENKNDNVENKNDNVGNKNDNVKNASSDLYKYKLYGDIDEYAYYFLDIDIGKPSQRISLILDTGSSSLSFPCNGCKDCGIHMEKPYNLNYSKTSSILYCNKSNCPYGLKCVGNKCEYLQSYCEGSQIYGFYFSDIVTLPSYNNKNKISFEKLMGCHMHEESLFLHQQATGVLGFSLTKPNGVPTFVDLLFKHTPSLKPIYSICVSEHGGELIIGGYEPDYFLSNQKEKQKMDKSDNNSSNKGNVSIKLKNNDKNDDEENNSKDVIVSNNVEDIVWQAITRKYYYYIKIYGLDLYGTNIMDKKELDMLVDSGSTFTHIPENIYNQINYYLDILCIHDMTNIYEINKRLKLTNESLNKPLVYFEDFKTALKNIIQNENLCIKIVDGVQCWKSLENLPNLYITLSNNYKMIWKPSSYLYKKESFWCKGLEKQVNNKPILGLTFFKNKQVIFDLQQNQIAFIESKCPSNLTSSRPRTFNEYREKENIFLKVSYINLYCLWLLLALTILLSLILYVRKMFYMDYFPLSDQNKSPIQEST

Chain of Plasmepsin V (Q8I6Z5 whole entry): as the sequence (Q8I6Z5 whole entry, looked up, the tested form may be a part) above

CC(C)C[C@H](NC(=O)[C@H](C)NC(=O)[C@H](CCCNC(=N)N)NC(=O)OCc1ccccc1)[C@@H](O)CC(=O)N(C)CCc1ccc(Cl)cc1
IC50 [1]: 5.35 µM
EC50 [2]: 20.3 µM
EC50 [3]: > 50 µM
Stability [4]: Stable
Stability [5]: Stable
inhibition [6]: inactive

CC(C)C[C@H](NC(=O)[C@H](C)NC(=O)[C@H](CCCNC(=N)N)N(C)C(=O)OCc1ccccc1)[C@@H](O)CC(=O)NCCc1ccc(Cl)cc1
IC50 [1]: 15.6 µM
EC50 [2]: 67.8 µM
EC50 [3]: > 50 µM
Stability [4]: Stable
Stability [5]: Stable
inhibition [6]: inactive

CC(C)C[C@@H]([C@@H](O)CC(=O)NCCc1ccc(Cl)cc1)N(C)C(=O)[C@H](C)NC(=O)[C@H](CCCNC(=N)N)NC(=O)OCc1ccccc1
IC50 [1]: 0.89 µM
EC50 [2]: 29.2 µM
EC50 [3]: > 50 µM
Stability [4]: Unstable
Stability [5]: Stable
inhibition [6]: inactive

CCN(CC)CCCC(C)Nc1ccnc2cc(Cl)ccc12 (centres undefined) [CHLOROQUINE]
EC50 [2]: 0.01 µM

CC(C)C[C@H](NC(=O)[C@@H](NC(=O)[C@H](CCCNC(=N)N)NC(=O)OCc1ccccc1)C(C)C)[C@@H](O)CC(=O)NCCc1ccccc1 (Cbz-Arg-Val-[Sta]-NHPhenethyl)
IC50 [1]: 0.026 µM
EC50 [2]: 3.97 µM
EC50 [3]: > 50 µM
inhibition [6]: Active

CC(C)C[C@H](NC(=O)[C@H](C)N(C)C(=O)[C@H](CCCNC(=N)N)NC(=O)OCc1ccccc1)[C@@H](O)CC(=O)NCCc1ccc(Cl)cc1
IC50 [1]: 48 µM
EC50 [2]: 23.2 µM
EC50 [3]: > 50 µM
Stability [4]: Stable
Stability [5]: Stable
inhibition [6]: inactive

CC(C)C[C@H](NC(=O)[C@H](C)NC(=O)[C@H](CCCNC(=N)N)NC(=O)OCc1ccccc1)[C@@H](O)CC(=O)NCCc1ccc(Cl)cc1
IC50 [1]: 0.3 µM
EC50 [2]: 15.3 µM
EC50 [3]: > 50 µM
Stability [4]: Stable
Stability [5]: Stable
inhibition [6]: Active

COc1cc([C@@H]2c3cc4c(cc3[C@@H](O[C@@H]3O[C@@H]5CO[C@@H](C)O[C@H]5[C@H](O)[C@H]3O)[C@H]3COC(=O)[C@H]23)OCO4)cc(OC)c1O [ETOPOSIDE]
EC50 [3]: 9.8 µM

CC(C)C[C@H](NC(=O)[C@H](C(C)C)N(C)C(=O)[C@H](CCCNC(=N)N)NC(=O)OCc1ccccc1)[C@@H](O)CC(=O)NCCc1ccccc1 (Cbz-Arg-[NMeV]-[Sta]-NHPhenethyl)
IC50 [1]: > 50 µM
EC50 [2]: 5.89 µM
inhibition [6]: inactive
